System: T-iPS-T cells
Test: Feeder-free culture of T-iPS-T cells, FACS count of PI-negative cells and CD45RA(+)CCR7(+) cells
Format: cell-based, human
Settings: 6 days; for Number of CD45RA+CCR7+ cells: DMSO 3891 ± 3170; for Cell number: DMSO 16096 ± 10785
Procedure: After washing, the cells were resuspended in the staining solution containing PI. Half the amount was analyzed using a BD LSR Fortessa cytometer (BD Bioscience) equipped with HTS, and all cells were recorded.
The concentration dependence of the bisbenzylisoquinoline alkaloid represented by the formula (X-1) or the formula (X-2) in feeder-free proliferation of T-iPS-T cells was examined. T-iPS-T cells were cultured using alpha-MEM medium supplemented with 15% FBS, 1% PSG, PAA (50 μg/mL), ITS-G, IL-7 (5 ng/mL), IL-12 (50 ng/mL), IL-15 (5 ng/mL), IL-18 (50 ng/mL), IL-21 (20 ng/mL), and z-VAD-fmk (10 μM).
The effect on culturing of T-iPS-T cells was evaluated by comparing a known compound that contributes to the proliferation of memory T cells with berbamine. […] DMSO (0.1%) that is a solvent for the compound was used as a control.
The number of events of PI-negative cells and the number of events of CD45RA(+)CCR7(+) cells in the PI-negative cells, which were analyzed by FlowJo 9, were used as data. Note that in a statistical analysis, a Student's t-test was used (*: p<0.05).
The effect of the combined use of berbamine with a MAPK cascade inhibitor on the proliferation of memory T cells was examined. […] The final concentration of each compound was set to 1 μM. DMSO (0.1%) that is a solvent for the compound was used as a control.
The number of events (#Cells) of CD45RA(+)CCR7(+) cells in the PI-negative cell population analyzed by FlowJo 9 was plotted and graphed. Note that in a statistical analysis, a Student's t-test was used (*: p<0.05, **P<0.01, ***P<0.001, ****P<0.0001).

Which results are given for `COc1ccc2cc1Oc1ccc(cc1)C[C@H]1c3c(cc4c(c3Oc3cc5c(cc3OC)CCN(C)[C@@H]5C2)OCO4)CCN1C` [Cepharanthine, cepharanthine]?
Number of CD45RA+CCR7+ cells (1 nM): 5429 ± 3207 **; Cell number (1 nM): 18312 ± 7127; Number of CD45RA+CCR7+ cells (3 nM): 5256 ± 3168; Cell number (3 nM): 19212 ± 8368; Number of CD45RA+CCR7+ cells (10 nM): 5632 ± 3014 ***; Cell number (10 nM): 20590 ± 9995; Number of CD45RA+CCR7+ cells (30 nM): 7764 ± 3495 **; Cell number (30 nM): 29158 ± 12980 *; Number of CD45RA+CCR7+ cells (100 nM): 9486 ± 4802 *; Cell number (100 nM): 41856 ± 9113 **; Number of CD45RA+CCR7+ cells (300 nM): 13060 ± 7584 *; Cell number (300 nM): 52923 ± 5313 **; Number of CD45RA+CCR7+ cells (1 μM): 10741 ± 5793; Cell number (1 μM): 48800 ± 17971 *; Number of CD45RA+CCR7+ cells (3 μM): 9245 ± 4682 *; Cell number (3 μM): 31965 ± 19694; Number of CD45RA+CCR7+ cells (10 μM): 1447 ± 2117; Cell number (10 μM): 4884 ± 8378

For `COc1cc2c3cc1Oc1c(OC)c(OC)cc4c1[C@@H](Cc1ccc(OC(=O)c5ccc([N+](=O)[O-])cc5)c(c1)Oc1ccc(cc1)C[C@@H]3N(C)CC2)N(C)CC4` [E6 Berbamine, E6-berbamine], which “Number of CD45RA+CCR7+ cells” value (1 nM) is on record?
The value was 6440 ± 4121 *.

And the Cell number (1 nM)?
Its Cell number is 20795 ± 11427 **.

What about the “Number of CD45RA+CCR7+ cells” value (3 nM) of the same molecule?
The value was 6205 ± 4137 *.

What about the Cell number (3 nM) of the same molecule?
The Cell number was 19420 ± 9845 **.

And the “Number of CD45RA+CCR7+ cells” value (10 nM)?
The value was 6015 ± 4682.

What about the Cell number (10 nM) of the same molecule?
The Cell number was 22404 ± 11035 ***.

And the “Number of CD45RA+CCR7+ cells” value (30 nM)?
The value was 7410 ± 4691 *.

What about the Cell number (30 nM) of the same molecule?
Its Cell number is 28009 ± 13327 *.

And the “Number of CD45RA+CCR7+ cells” value (100 nM)?
Its value is 10775 ± 5788 *.

And the Cell number (100 nM)?
The Cell number was 44562 ± 11985 **.

And the “Number of CD45RA+CCR7+ cells” value (300 nM)?
Its value is 12148 ± 6414 *.

And the Cell number (300 nM)?
The Cell number was 55682 ± 3508 **.

What about the “Number of CD45RA+CCR7+ cells” value (1 μM) of the same molecule?
Its value is 5075 ± 3582.

And the Cell number (1 μM)?
Its Cell number is 26964 ± 23925.

And the “Number of CD45RA+CCR7+ cells” value (3 μM)?
The value was 2080 ± 3520.

What about the Cell number (3 μM) of the same molecule?
The Cell number was 16367 ± 26569.

And the “Number of CD45RA+CCR7+ cells” value (10 μM)?
The value was 1791 ± 3538.

And the Cell number (10 μM)?
Its Cell number is 8441 ± 16764.
